Measured values published in publication PMC3462775 (PLoS ONE, 2012).
“Also recorded” adds a separate entry of the source.

Experiments:
aureolysin = assay: Staphylococcus aureus aureolysin (3 µg, BioCol GmbH) in 300 µl 20 mM Tris-HCl, 1 mM CaCl2 pH 7.8; details: 37°C, up to 24 h
elastase = assay: Pseudomonas aeruginosa elastase (3 µg, Calbiochem) in 300 µl 20 mM Tris-HCl, 1 mM CaCl2 pH 7.8; details: 37°C, up to 24 h

- cleaved bond (aureolysin): R6-L7, 1h; also recorded: S8-A9, 1h
- cleaved bond (elastase): R6-L7, 5 h; also recorded: S8-A9, 5 h
Sequence: KKIRVRLSA
- not cleaved (aureolysin): remaining unaltered after 24 h of incubation
- not cleaved (elastase): resisted degradation by elastase for 24 h
